Paper PMC2758355 (Chemical research in toxicology, 2009)
Entries after “also recorded” stand apart in the source; their conditions may differ.

Legend:
ER = settings: cited from earlier work
ERα [1] = target: T1, ERα (Homo sapiens, UniProt P03372); test: Competition binding with [3H]estradiol in MCF-7 cells; settings: for activity in in vitro assays (result in words): binding and transactivation assays, experimental testing; for Ki: competition with radioactive-labeled estradiol
T1 sequence (P03372 1-595): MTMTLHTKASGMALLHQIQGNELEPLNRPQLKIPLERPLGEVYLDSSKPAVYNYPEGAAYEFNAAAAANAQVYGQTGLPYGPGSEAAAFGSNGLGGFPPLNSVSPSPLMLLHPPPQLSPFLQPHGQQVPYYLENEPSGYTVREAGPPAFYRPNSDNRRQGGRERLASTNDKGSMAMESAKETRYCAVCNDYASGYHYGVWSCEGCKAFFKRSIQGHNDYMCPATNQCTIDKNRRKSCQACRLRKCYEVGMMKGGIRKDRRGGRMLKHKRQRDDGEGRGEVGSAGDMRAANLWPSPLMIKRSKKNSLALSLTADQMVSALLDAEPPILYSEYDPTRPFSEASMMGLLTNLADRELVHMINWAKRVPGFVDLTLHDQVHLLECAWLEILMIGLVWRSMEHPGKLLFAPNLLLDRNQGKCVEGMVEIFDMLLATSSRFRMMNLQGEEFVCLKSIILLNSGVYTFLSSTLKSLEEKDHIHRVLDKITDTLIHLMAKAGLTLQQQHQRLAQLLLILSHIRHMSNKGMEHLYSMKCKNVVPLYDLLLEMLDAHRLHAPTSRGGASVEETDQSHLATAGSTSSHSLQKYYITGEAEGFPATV

[2] = established by JECFA; ref www.fao.org/ag/agn/jecfa-additives; cited from earlier work
ERα [3] = target: T1, ERα; settings: cited from earlier work

Row | activity in in vitro assays (result in words) (ERα [1]) | SMILES | binding to ER (result in words) (ER) | other results
1 | – | CCCCOC(=O)c1ccc(O)cc1 [butyl p-hydroxybenzoate] | known to bind to ER; also recorded: weak binders | –
2 | – | COc1cc(/C=C/C(=O)CC(=O)/C=C/c2ccc(O)c(OC)c2)ccc1O [curcumin] | – | binding to the receptor in the competition assay (result in words) (ERα [1]; competitor 1 nM to 0.25 μM): lack binding activity
3 | – | CC(Cc1ccc(O)c(O)c1)C(C)Cc1ccc(O)c(O)c1 (centres unmarked) [nordihydroguaiaretic acid] | known to bind to ER; also recorded: nanomolar binding affinity/potency | –
4 | only the propyl gallate resulted active | CCCCCCCCOC(=O)c1cc(O)c(O)c(O)c1 [octyl gallate] | – | –
5 | active | CCCOC(=O)c1cc(O)c(O)c(O)c1 [propyl gallate] | – | Ki (ERα [1]; binding constant, Figure 4a): 54 nM; Ki (ERα [1]; pKi): 40.7 nM; acceptable daily intake [2]: 0−1.4 mg/kg; transactivation activity (result in words) (ERα [3]): high micromolar range
6 | – | CCCOC(=O)c1ccc(O)cc1 [propyl p-hydroxybenzoate] | known to bind to ER | –

Row | SMILES | activity in in vitro assays (result in words) (ERα [1]) | binding to ER (result in words) (ER) | other results
7 | COc1cc(CNC(=O)CCCC/C=C/C(C)C)ccc1O [capsaicin] | inactive | – | –
